# Laboratory results reported in PMC4199632, “Exploring the Anti-Cancer Activity of Novel Thiosemicarbazones Generated through the Combination of Retro-Fragments: Dissection of Critical Structure-Activity Relationships” (PLoS ONE, 2014).
# Assays:
# [1] = Ascorbate oxidation assay (iron complexes); assay type: biochemical; settings: iron complex; for Ascorbate oxidation (% of the control): FeIII 10 µM, ascorbate 100 µM
# Procedure: The ability of the iron complexes of the novel ligands to mediate the oxidation of the physiological substrate, ascorbate, was examined using established methods, [18], [22], [52], [53]. Ascorbic acid (100 µM) was prepared immediately prior to each experiment and was incubated in the presence of Fe^III (10 µM; as FeCl3), the chelator (1–60 µM) and a 50-fold molar excess of citrate (500 µM). The absorbance at 265 nm was measured after 10 and 40 min and the difference in absorbance at these time points was calculated. The results of these experiments were expressed as iron-binding equivalents (IBE) due to the different denticity of the chelators examined. The chelators, Dp44mT, DFO and ethylenediaminetetraacetic acid (EDTA) were used as controls as the ability of their iron complexes to oxidize ascorbate has been extensively characterized, [15], [52], [53].
# The ability of the iron complexes of the novel TSCs to catalyze the oxidation of the physiological substrate, ascorbate, was important to assess as redox cycling may play a critical role in their anti-proliferative activity, [15], [18], [52], [53]. Thus, the oxidation of ascorbate mediated by the iron complexes of series 1–6 were examined in comparison to the iron complexes of the control compounds, DFO, EDTA and Dp44mT, as the ability of the latter to oxidize ascorbate is well characterized, [15], [52], [53], [68]. The results were expressed as a percentage of the control (no chelator) at iron-binding equivalents (IBEs) of 0.1 (excess “free” iron), 1 (iron-chelator complexes with a fully filled coordination sphere), or 3 (excess free chelator), due to the different denticity of the chelators examined (Fig. 10).
# Figure 10 Effect of the iron complexes of (A) series 1, (B) series 2, (C) series 3, (D) series 4, (E) series 5 and (F) series 6 chelators, relative to DFO, Dp44mT and EDTA, on ascorbate oxidation. Chelators at iron-binding equivalent (IBE) ratios of 0.1, 1, and 3 were incubated in the presence of Fe^III (10 µM) and ascorbate (100 µM). The UV-Vis absorbance at 265 nm was recorded after 10 and 40 min, and the difference between the time points was calculated. Results are mean ±SD (3 experiments).
# [2] = test system: Raji Burkitt's lymphoma cells; experiment: Proliferation assay (MTT, 72 h); assay type: cell-based; settings: Homo sapiens, 72 h incubation, mean ±SD (3 experiments)
# In short: (§1)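 Cells seeded 24 h before treatment, then exposed at 37 °C for 72 h (SK-N-MC, Raji, HeLa) or 96 h (HCT116, NHDF); final DMSO <0.05%. Read-outs: MTT at 570 nm (SK-N-MC, Raji), crystal violet at 595 nm (HeLa), MTS at 490 nm (HCT116, NHDF); IC50 is 50% absorbance versus untreated control, triplicates repeated three times.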
# [3] = test system: SK-N-MC neuroepithelioma cells; experiment: Proliferation assay (MTT, 72 h); assay type: cell-based; settings: Homo sapiens, 72 h incubation, mean ±SD (3 experiments)
# In short: as §1
Compound,IC50 [2],IC50 [3],Ascorbate oxidation compared with controls ([1]; IBE 3),Ascorbate oxidation (% of the control) ([1]; IBE 3),Ascorbate oxidation (% of the control) ([1]; IBE 0.1),Ascorbate oxidation (% of the control) ([1]; IBE 1)
CN(C(=S)N/N=C/c1ccccc1O)C1CCCCC1 [6f],690 ± 510 nM,> 6250 nM,decreased ascorbate oxidation relative to the control,,,
"CN(C)C(=S)NN=C(c1ccccn1)c1ccccn1 [Dp44mT, di-2-pyridylketone 4,4-dimethyl-3-thiosemicarbazone, reference compound]",7 ± 1 nM,12 ± 1 nM,,196%,129%,203%
CN(C(=S)N/N=C/c1ccc2ccccc2n1)C1CCCCC1 [2f],810 ± 100 nM,820 ± 190 nM,,,,
"CC(=O)N(O)CCCCCNC(=O)CCC(=O)N(O)CCCCCNC(=O)CCC(=O)N(O)CCCCCN [DFO, desferrioxamine, reference compound]",4740 ± 1800 nM,15100 ± 5200 nM,,23%,,47%

# Continued by falling IC50 [2], values first:
IC50 [2],IC50 [3],Compound,Ascorbate oxidation compared with controls ([1]; IBE 3),Ascorbate oxidation (% of the control) ([1]; IBE 3),Ascorbate oxidation (% of the control) ([1]; IBE 0.1),Ascorbate oxidation (% of the control) ([1]; IBE 1)
720 ± 290 nM,2040 ± 340 nM,CN(C(=S)N/N=C/c1cnc2ccccc2n1)C1CCCCC1 [5f],decreased ascorbate oxidation relative to the control,,,
60 ± 20 nM,2540 ± 860 nM,CCN1CCN(C(=S)N/N=C/c2ccc3ccccc3n2)CC1 [2a],,200–265%,,
40 ± 20 nM,70 ± 50 nM,S=C(NN=C(c1ccccn1)c1ccccn1)N1CCN(c2cnccn2)CC1 [1e],,200–265%,,
40 ± 10 nM,330 ± 20 nM,S=C(N/N=C/c1ccc2ccccc2n1)N1CCN(c2ccccc2)CC1 [2b],,,,
